# Values of other authors in patent US8298573B2, “Stable sterile filterable liposomal encapsulated taxane and other antineoplastic drugs” (priority 2003, dated 2012).
compound,measurement,value
CC(=O)O[C@H]1C(=O)[C@@]2(C)[C@H]([C@H](OC(=O)c3ccccc3)[C@]3(O)C[C@H](OC(=O)[C@H](O)[C@@H](NC(=O)c4ccccc4)c4ccccc4)C(C)=C1C3(C)C)[C@]1(OC(C)=O)CO[C@@H]1C[C@@H]2O [paclitaxel],solubility in water,extremely low
